Reference: ChEMBL document CHEMBL1126104, “Synthesis and antiviral activity of some new S-adenosyl-L-homocysteine derivatives” (1992)
In brackets after ≈: the same amount, converted by molar mass.

Key:
[1] = tested on: Vesicular stomatitis virus; test: Antiviral activity against vesicular stomatitis virus (VSV) in HeLa cell culture lines,; type: functional
Human alphaherpesvirus 2 = test: Antiviral activity against HSV-2(G) strain in primary rabbit kidney (PRK) / embryonic skin-muscle (E6SM) fibroblast culture lines; type: functional; settings: Human alphaherpesvirus 2, Muscle tissue
Coxsackievirus B4 [2] = test: Antiviral activity against coxsackie B4 in Vero cell culture lines; type: functional; settings: Enterovirus B
Human alphaherpesvirus 1 = test: Antiviral activity against HSV-1(KOS) strain in primary rabbit kidney (PRK) / embryonic skin-muscle (E6SM) fibroblast culture lines; type: functional; settings: Human alphaherpesvirus 1, Muscle tissue
[3] = tested on: Vesicular stomatitis virus; test: Antiviral activity against vesicular stomatitis virus (VSV) in primary rabbit kidney (PRK) / embryonic skin-muscle (E6SM) fibroblast culture lines; type: functional; settings: Muscle tissue
Coxsackievirus B4 [4] = test: Antiviral activity against coxsackie B4 virus in HeLa cell culture lines; type: functional; settings: Enterovirus B
Poliovirus 1 = test: Antiviral activity against polio virus type 1 in HeLa cell culture lines; type: functional; settings: Enterovirus C
Human respirovirus 3 = test: Antiviral activity against parainfluenza virus type 3 in Vero cell culture lines; type: functional
[5] = tested on: Mammalian orthoreovirus 1; test: Antiviral activity against reovirus type 1 in Vero cell culture lines; type: functional
Sindbis virus = test: Antiviral activity against sindbis virus in Vero cell culture lines; type: functional
[6] = tested on: Human immunodeficiency virus 1; test: Antiviral activity against (HIV-1) in MT-4 cells Value in parentheses is inhibitory concentration for cell growth (MT-4); type: functional, MT4
Vaccinia virus = test: Antiviral activity against vaccinia virus (VV) in primary rabbit kidney (PRK) / embryonic skin-muscle (E6SM) fibroblast culture lines; type: functional; settings: Orthopoxvirus vaccinia, Muscle tissue
Semliki Forest virus = test: Antiviral activity against semliki forest virus (SFV) in Vero cell culture lines; type: functional

Compound	MIC [1]	MIC (Human alphaherpesvirus 2)	MIC (Coxsackievirus B4 [2])	MIC (Human alphaherpesvirus 1)	MIC [3]	MIC (Coxsackievirus B4 [4])	MIC (Poliovirus 1)	MIC (Human respirovirus 3)	MIC [5]	MIC (Sindbis virus)	MIC [6]	MIC (Vaccinia virus)	MIC (Semliki Forest virus)
CC(C)OC(=O)C(CCSC[C@H]1OC(n2ccc3c(N)ncnc32)[C@H](O)[C@@H]1O)NC(=O)C(F)(F)F (some centres undefined)	20 µg/mL (≈ 38.3 µM)	10 µg/mL (≈ 19.2 µM)	> 50 µg/mL	20 µg/mL (≈ 38.3 µM)	5 µg/mL (≈ 9.59 µM)	> 100 µg/mL	> 100 µg/mL	> 50 µg/mL	> 50 µg/mL	> 70 µg/mL	> 4 µg/mL	1 µg/mL (≈ 1.92 µM)	> 100 µg/mL
CCCOC(=O)C(N)CCSC[C@H]1OC(n2ccc3c(N)ncnc32)[C@H](O)[C@@H]1O (some centres undefined)	20 µg/mL (≈ 47 µM)	2 µg/mL (≈ 4.7 µM)	70 µg/mL (≈ 165 µM)	10 µg/mL (≈ 23.5 µM)	2 µg/mL (≈ 4.7 µM)	> 100 µg/mL	> 100 µg/mL	> 70 µg/mL	> 70 µg/mL	> 70 µg/mL	> 20 µg/mL	1 µg/mL (≈ 2.35 µM)	> 150 µg/mL
Nc1nccc2c1ncn2[C@@H]1O[C@H](CO)C[C@H]1O	> 40 µg/mL	70 µg/mL (≈ 280 µM)	> 100 µg/mL	> 100 µg/mL	> 100 µg/mL	> 40 µg/mL	> 40 µg/mL	> 100 µg/mL	> 100 µg/mL	> 100 µg/mL	> 20 µg/mL	> 40 µg/mL	> 100 µg/mL
CCCOC(=O)C(CCSC[C@H]1OC(n2ccc3c(N)ncnc32)[C@H](O)[C@@H]1O)NC(=O)C(F)(F)F (some centres undefined)	> 20 µg/mL	> 10 µg/mL	> 150 µg/mL	> 10 µg/mL	> 10 µg/mL	> 100 µg/mL	> 100 µg/mL	70 µg/mL (≈ 134 µM)	> 100 µg/mL	70 µg/mL (≈ 134 µM)	–	0.7 µg/mL (≈ 1.34 µM)	> 200 µg/mL
Nc1ncnc2c1ccn2[C@@H]1O[C@H](CO)[C@@H](O)[C@H]1O [TUBERCIDIN]	0.07 µg/mL (≈ 0.263 µM)	0.2 µg/mL (≈ 0.751 µM)	0.07 µg/mL (≈ 0.263 µM)	> 0.2 µg/mL	0.07 µg/mL (≈ 0.263 µM)	0.2 µg/mL (≈ 0.751 µM)	0.2 µg/mL (≈ 0.751 µM)	0.02 µg/mL (≈ 0.0751 µM)	0.02 µg/mL (≈ 0.0751 µM)	> 0.1 µg/mL	–	> 0.1 µg/mL	> 0.1 µg/mL
CC(C)(C)C(=O)ONC(CCSC[C@H]1OC(n2ccc3c(N)ncnc32)[C@H](O)[C@@H]1O)C(=O)O (some centres undefined)	> 400 µg/mL	> 100 µg/mL	> 400 µg/mL	> 100 µg/mL	> 100 µg/mL	> 400 µg/mL	> 400 µg/mL	> 400 µg/mL	> 400 µg/mL	> 400 µg/mL	> 200 µg/mL	20 µg/mL (≈ 41.4 µM)	> 400 µg/mL
CCCOC(=O)C(CCSC[C@H]1OC(n2ccc3c(N)ncnc32)[C@H](O)[C@@H]1O)NC(=O)COC (some centres undefined)	> 20 µg/mL	10 µg/mL (≈ 20.1 µM)	15 µg/mL (≈ 30.1 µM)	20 µg/mL (≈ 40.2 µM)	2 µg/mL (≈ 4.02 µM)	100 µg/mL (≈ 201 µM)	100 µg/mL (≈ 201 µM)	20 µg/mL (≈ 40.2 µM)	> 30 µg/mL	> 40 µg/mL	0.8 µg/mL (≈ 1.61 µM)	4 µg/mL (≈ 8.04 µM)	> 70 µg/mL
Nc1ncnc2c([C@H]3CC[C@@H](CCl)O3)n[nH]c12	> 400 µg/mL	> 200 µg/mL	> 200 µg/mL	> 200 µg/mL	> 400 µg/mL	> 400 µg/mL	> 400 µg/mL	> 200 µg/mL	> 200 µg/mL	> 200 µg/mL	> 100 µg/mL	> 400 µg/mL	> 400 µg/mL
CC(=O)NC(CCSC[C@H]1OC(n2ccc3c(N)ncnc32)[C@H](O)[C@@H]1O)C(=O)O (some centres undefined)	> 400 µg/mL	> 200 µg/mL	> 400 µg/mL	> 200 µg/mL	> 200 µg/mL	> 400 µg/mL	> 400 µg/mL	> 400 µg/mL	> 700 µg/mL	> 400 µg/mL	> 200 µg/mL	7 µg/mL (≈ 16.5 µM)	> 400 µg/mL
CC(C)(C)C(=O)OCn1nc([C@@H]2O[C@H](CO)C[C@H]2O)c2ncnc(N)c21	> 100 µg/mL	> 100 µg/mL	> 100 µg/mL	> 100 µg/mL	> 100 µg/mL	> 100 µg/mL	> 100 µg/mL	> 100 µg/mL	> 100 µg/mL	> 100 µg/mL	> 20 µg/mL	> 100 µg/mL	> 100 µg/mL
CC(C)OC(=O)C(N)CCSC[C@H]1OC(n2ccc3c(N)ncnc32)[C@H](O)[C@@H]1O (some centres undefined)	7 µg/mL (≈ 16.5 µM)	> 10 µg/mL	> 100 µg/mL	> 10 µg/mL	7 µg/mL (≈ 16.5 µM)	> 40 µg/mL	> 100 µg/mL	20 µg/mL (≈ 47 µM)	> 40 µg/mL	> 40 µg/mL	> 1.6 µg/mL	0.2 µg/mL (≈ 0.47 µM)	> 100 µg/mL
NC(=O)c1ncn([C@@H]2O[C@H](CO)[C@@H](O)[C@H]2O)n1 [RIBAVIRIN]	20 µg/mL (≈ 81.9 µM)	> 400 µg/mL	> 70 µg/mL	> 400 µg/mL	50 µg/mL (≈ 205 µM)	40 µg/mL (≈ 164 µM)	70 µg/mL (≈ 287 µM)	70 µg/mL (≈ 287 µM)	40 µg/mL (≈ 164 µM)	200 µg/mL (≈ 819 µM)	> 20 µg/mL	30 µg/mL (≈ 123 µM)	200 µg/mL (≈ 819 µM)
Nc1ncnc2c([C@H]3C[C@@H](O)[C@@H](CO)O3)n[nH]c12	> 400 µg/mL	> 400 µg/mL	300 µg/mL (≈ 1190 µM)	> 400 µg/mL	> 400 µg/mL	> 400 µg/mL	> 400 µg/mL	> 400 µg/mL	> 400 µg/mL	> 400 µg/mL	> 100 µg/mL	> 400 µg/mL	> 400 µg/mL
CC(C)(C)C(=O)ONC(CCSC[C@H]1OC(n2ccc3c(N)ncnc32)[C@H](O)[C@@H]1O)C(=O)OCC[Si](C)(C)C (some centres undefined)	> 40 µg/mL	> 10 µg/mL	70 µg/mL (≈ 120 µM)	> 10 µg/mL	> 10 µg/mL	> 40 µg/mL	> 40 µg/mL	> 40 µg/mL	> 40 µg/mL	> 40 µg/mL	> 8 µg/mL	2 µg/mL (≈ 3.43 µM)	> 40 µg/mL
CC(=O)NC(CCSC[C@H]1OC(n2ccc3c(N)ncnc32)[C@H](O)[C@@H]1O)C(=O)OC(C)C (some centres undefined)	20 µg/mL (≈ 42.8 µM)	40 µg/mL (≈ 85.6 µM)	40 µg/mL (≈ 85.6 µM)	> 100 µg/mL	10 µg/mL (≈ 21.4 µM)	70 µg/mL (≈ 150 µM)	100 µg/mL (≈ 214 µM)	> 100 µg/mL	> 70 µg/mL	> 100 µg/mL	> 4 µg/mL	10 µg/mL (≈ 21.4 µM)	> 200 µg/mL
CCCCOC(=O)C(N)CCSC[C@H]1OC(n2ccc3c(N)ncnc32)[C@H](O)[C@@H]1O (some centres undefined)	7 µg/mL (≈ 15.9 µM)	> 10 µg/mL	> 200 µg/mL	20 µg/mL (≈ 45.5 µM)	20 µg/mL (≈ 45.5 µM)	> 40 µg/mL	> 100 µg/mL	150 µg/mL (≈ 341 µM)	70 µg/mL (≈ 159 µM)	> 200 µg/mL	> 1.6 µg/mL	2 µg/mL (≈ 4.55 µM)	> 200 µg/mL
Nc1ncnc2c(C3O[C@H](CCl)[C@@H](O)[C@H]3O)n[nH]c12 (some centres undefined)	> 200 µg/mL	> 200 µg/mL	70 µg/mL (≈ 245 µM)	> 200 µg/mL	> 400 µg/mL	> 400 µg/mL	> 400 µg/mL	70 µg/mL (≈ 245 µM)	> 100 µg/mL	> 100 µg/mL	> 100 µg/mL	300 µg/mL (≈ 1050 µM)	> 100 µg/mL
Nc1ncnc2c1ncn2[C@@H]1O[C@H](CSCCC(N)C(=O)O)C[C@H]1O (some centres undefined)	> 200 µg/mL	> 100 µg/mL	> 200 µg/mL	> 100 µg/mL	> 100 µg/mL	> 200 µg/mL	> 200 µg/mL	> 200 µg/mL	> 200 µg/mL	> 200 µg/mL	> 100 µg/mL	> 200 µg/mL	> 100 µg/mL
CCOC(=O)C(CCSC[C@H]1OC(n2ccc3c(N)ncnc32)[C@H](O)[C@@H]1O)NC(=O)COC (some centres undefined)	> 70 µg/mL	> 100 µg/mL	> 150 µg/mL	> 100 µg/mL	70 µg/mL (≈ 145 µM)	150 µg/mL (≈ 310 µM)	> 200 µg/mL	> 400 µg/mL	300 µg/mL (≈ 620 µM)	300 µg/mL (≈ 620 µM)	–	2 µg/mL (≈ 4.14 µM)	> 400 µg/mL
Nc1ncnc2c1CCN2[C@@H]1O[C@H](CO)C[C@H]1O	> 10 µg/mL	7 µg/mL (≈ 27.7 µM)	7 µg/mL (≈ 27.7 µM)	> 10 µg/mL	> 10 µg/mL	7 µg/mL (≈ 27.7 µM)	7 µg/mL (≈ 27.7 µM)	7 µg/mL (≈ 27.7 µM)	4 µg/mL (≈ 15.9 µM)	30 µg/mL (≈ 119 µM)	–	7 µg/mL (≈ 27.7 µM)	> 40 µg/mL
CCOC(=O)C(N)CCSC[C@H]1OC(n2ccc3c(N)ncnc32)[C@H](O)[C@@H]1O (some centres undefined)	20 µg/mL (≈ 48.6 µM)	20 µg/mL (≈ 48.6 µM)	20 µg/mL (≈ 48.6 µM)	20 µg/mL (≈ 48.6 µM)	7 µg/mL (≈ 17 µM)	70 µg/mL (≈ 170 µM)	70 µg/mL (≈ 170 µM)	> 100 µg/mL	> 70 µg/mL	> 100 µg/mL	–	7 µg/mL (≈ 17 µM)	> 100 µg/mL
Nc1ncnc2c1CCN2[C@@H]1O[C@H](CSCCC(N)C(=O)O)C[C@H]1O (some centres undefined)	20 µg/mL (≈ 54.1 µM)	> 100 µg/mL	> 200 µg/mL	> 100 µg/mL	20 µg/mL (≈ 54.1 µM)	> 200 µg/mL	> 200 µg/mL	100 µg/mL (≈ 271 µM)	70 µg/mL (≈ 189 µM)	> 200 µg/mL	–	2 µg/mL (≈ 5.41 µM)	> 200 µg/mL
Nc1nccc2c1ncn2[C@@H]1O[C@H](CO)[C@@H](O)[C@H]1O	> 2 µg/mL	100 µg/mL (≈ 376 µM)	> 200 µg/mL	> 400 µg/mL	0.7 µg/mL (≈ 2.63 µM)	> 400 µg/mL	> 400 µg/mL	0.4 µg/mL (≈ 1.5 µM)	0.4 µg/mL (≈ 1.5 µM)	70 µg/mL (≈ 263 µM)	–	1 µg/mL (≈ 3.76 µM)	> 400 µg/mL
Nc1ncnc2c1ncn2C[C@H](O)CO [(S)-DHPA]	> 70 µg/mL	> 400 µg/mL	> 70 µg/mL	> 400 µg/mL	20 µg/mL (≈ 95.6 µM)	> 400 µg/mL	> 400 µg/mL	10 µg/mL (≈ 47.8 µM)	7 µg/mL (≈ 33.5 µM)	> 400 µg/mL	–	40 µg/mL (≈ 191 µM)	> 400 µg/mL
